# Data taken from patent EP1134585B1, “Biosensor and method for the monitoring of herbicides” (CONSIGLIO NAZIONALE DELLE RICERCHE, priority 2000, dated 2001).
# What was measured:
# D1 protein Val219->Ile = D1 protein Val219->Ile (Chlamydomonas reinhardtii, UniProt P07753, V219I); settings: code Dr2; cited from earlier work
# D1 protein Ala250->Arg = D1 protein Ala250->Arg (Chlamydomonas reinhardtii, UniProt P07753, A250R); settings: cited from earlier work
# D1 protein Phe255->Tyr [1] = biological target: D1 protein Phe255->Tyr (Synechococcus elongatus, UniProt P04996, F255Y); settings: Synachococcus PCC7942, code TyrS; cited from earlier work
# D1 protein A1a251→Gly = D1 protein A1a251→Gly (Chlamydomonas reinhardtii, UniProt P07753, A251G); settings: cited from earlier work
# D1 protein Phe255->Tyr [2] = biological target: D1 protein Phe255->Tyr (Chlamydomonas reinhardtii, UniProt P07753, F255Y); settings: code Ar207+; cited from earlier work
# [3] = biological target: D1 protein Phe211->Ile Met214->Gly (Chlamydomonas reinhardtii, UniProt P07753, F211I/M214G); settings: cited from earlier work
# D1 protein Ala250->Asn = D1 protein Ala250->Asn (Chlamydomonas reinhardtii, UniProt P07753, A250N); settings: cited from earlier work
# [4] = biological target: D1 protein Ala250→Ser Phe255→IIe (Chlamydomonas reinhardtii, UniProt P07753, A250S/F255I); settings: cited from earlier work
# [5] = biological target: D1 protein Phe255->Tyr Ser264->Ala (Synechococcus elongatus, UniProt P04996, F255Y/S264A); settings: code D5; cited from earlier work
# D1 protein Ala250->Asp = D1 protein Ala250->Asp (Chlamydomonas reinhardtii, UniProt P07753, A250D); settings: cited from earlier work
# D1 protein A1a250->Tyr = D1 protein A1a250->Tyr (Chlamydomonas reinhardtii, UniProt P07753, A250Y); settings: cited from earlier work
# [6] = biological target: D1 protein I1e259->Ser Ser264->Ala Asn266->Thr (Chlamydomonas reinhardtii, UniProt P07753, I259S/N266T/S264A); settings: cited from earlier work
# [7] = biological target: D1 protein Leu275->Phe (MZ4) (Chlamydomonas reinhardtii, UniProt P07753, L275F); settings: code MZ4; cited from earlier work
# D1 protein Ser264->Ala [8] = biological target: D1 protein Ser264->Ala (Synechococcus elongatus, UniProt P04996, S264A); settings: Synechococcus sp. PCC7942, code Dil; cited from earlier work
# PS II = PS II treated with CdCl2, refrigeration at 5°C, flow 0,2-2,0 ml/m
# Source text: To further increase the stability of the biomediator the usefulness of a system for the refrigeration of the solution containing herbicide forwarded into the measuring cell experimentally was observed.
# [9] = biological target: D1 protein Ser264→Ala Asn266→Thr (Chlamydomonas reinhardtii, UniProt P07753, N266T/S264A); settings: cited from earlier work
# Tyr222->Phe = settings: code T4; cited from earlier work
# [10] = biological target: D1 protein Phe211→Gly Met214→Gln (Chlamydomonas reinhardtii, UniProt P07753, F211G/M214Q); settings: cited from earlier work
# D1 protein Ser264->Thr = settings: Euglena, code MSI; cited from earlier work
# D1 protein Arg257->Val = D1 protein Arg257->Val (Synechocystis sp., UniProt P16033, R257V); settings: cited from earlier work
# D1 protein Ser264->Ala [11] = biological target: D1 protein Ser264->Ala (Chlamydomonas reinhardtii, UniProt P07753, S264A); settings: codes MZ1 MZ3 MZ5; cited from earlier work
# PhC2,6―Pro = settings: cited from earlier work
# [12] = system: thylakoids from Amaranthus retroflexus, Mutant; format: biochemical; settings: herbicide concentration 10^-6 M
# Thr226->Met = settings: cited from earlier work
# I1e229->Cys = settings: cited from earlier work
# Gly228->Val = settings: cited from earlier work
# [13] = system: PS II isolated from thermophilic cyanobacteria; settings: immobilized PS II, Clark electrode (Koblizek et al.); cited from earlier work
# [14] = system: thylakoids from Amaranthus retroflexus, Wild-type; assay: Biosensor fluorescence response (Table D), wild-type biomediator; format: biochemical; settings: herbicide concentration 10^-6 M
# I1e229->Ala = settings: cited from earlier work
# Phe216->Leu = settings: cited from earlier work
# Vicia faba thylakoids = Vicia faba thylakoids (Vicia faba, UniProt P13910); assay: Biosensor fluorescence response, immobilized thylakoids (Table A); format: biochemical; settings: contact time 20 min
# Source text: (§1) According to a specially advantageous embodiment, Bioherbi is an equipment weighing in all about […], occupies a space of about 30x30x20 cm and is constituted as reported below. • a) flow cell wherein the biomediator is immobilized. […] The black plastic material allows to fit the biomediator in the dark. The biomediator in entrapped in the inner section. The surface tightness of the reading hole is obtained using a glass cover plate for microscopy. The inner cell, where the mediator is entrapped, has un volume from 50 to 300 µl. • b) a peristaltic pump is the hydraulic part to withdraw the sample containing the herbicide to be analyzed, which moves said sample through the flow cell and brings it in close contact with the biomediator. According to a specially advantageous embodiment a single block is used as holder for the herbicide and peristaltic pump. The flow can be varied from 0,2 to 2 ml/min depending on the sample. Higher flow increases the sensitivity to the herbicide because the latter interacts with a higher number of bonding sites on PS II. By laboratory tests it was found out that, when the solution of the herbicide flows, the efficiency of the fluorescence measure could be impaired by light scattering effects. Accordingly it is preferred to carry out the measure in stopped-flow conditions using a flow switch. The biomediator immobilized within the flow cell, following each measure, is washed and regenerated by a suitable buffer solution. A valve allows to forward alternatively the flow of the buffer or the solution containing the herbicide to be analyzed. • c) optical fiber fluorescence sensor closely connected to the flow cell. The fluorescence emitted from green plants depends on the photosynthetic activity. Recent studies on fluorescence measuring techniques made this feature a very important tool in the basic and applied research about the plant physiology (D Lazar, 1999, Biochim Biophys Acta 1-28). Bioherbi analyzer measures the fluorescence emitted from photosynthetic complexes and modifications determined by the presence of herbicide. The sensor is tightly connected to the flow cell to avoid any infiltration of external light and provides the excitation light detecting the fluorescence signal. The excitation light is emitted from an emitting diode at a very narrow wavelength of about 650 nm, which is quickly absorbed by the Photosystem II of the photosynthetic organisms and has the advantage in that it provides light with reduced heating and emits the signal very quickly. A "feedback" optical circuit controls and adjusts the variations of the intensity of the emitted light also resulting from variations of ambient temperature. The analyzer consists of an high capacity photodiode associated to an amplifier. The optical system responds perfectly to the fluorescence emission wavelength of 700 nm and stops the reflection light of lower wavelength resulting from the emission light. The sensor is connected to the control computer by an about 30 cm long fiber. According to a variation of the biosensor we used a more complex fluorescence system, adjustable as the excitation light in order to allow the use, as biomediator, of photosynthetic organisms requiring specific wavelengths. • e) a control and data processing computer. […] The concentration of the herbicide is proportional to the area over the fluorescence curve (Table 1A-B); the inhibition of this area is closely related to the washing times whereby it is possible to determinate the concentration of the herbicide also using the washing time required to obtain an almost complete inhibition of the area (see Table 1C). The fluorescence signal received by the sensor is processed within the control chamber by transduction systems of the signal and analog-to-digital converters. The system is computerized with a very sophisticated microprocessor able to process the data of the fluorescence signal. […]
# Gly228->Arg = settings: cited from earlier work
# Thr226->Ala = settings: cited from earlier work
# Phe216→Val = settings: cited from earlier work
# I1e229→Met = settings: R. capsulatus; cited from earlier work
# [15] = biological target: T1, thylakoids from Spinacia oleracea (Spinacia oleracea, UniProt P69560); assay: Biosensor fluorescence response (Tables B and C); format: biochemical; settings: for inhibition at 0.01 µM: control printed as 100
# T1 construct: biomediator based on thylakoids from Spinacia oleracea; from tissue; host or cells: thylakoids isolated from mature spinach plants
# Source text: as §1
# D1 protein Asn266->Asp = settings: code loxlla; cited from earlier work
# D1 protein A/a251->lIe = D1 protein A/a251->lIe (Chlamydomonas reinhardtii, UniProt P07753, A251I); settings: cited from earlier work
# I1e228->Leu = settings: cited from earlier work
# monoclonal antibodies = settings: ELISA (Schneider et al. 1994); cited from earlier work
# Phe216->Thr = settings: cited from earlier work
# [16] = biological target: D1 protein Phe211→Ala Met214→Thr (Chlamydomonas reinhardtii, UniProt P07753, F211A/M214T); settings: cited from earlier work
# [17] = Diuron 10^-9 M, after regeneration
# [18] = Table B, first column Diuron 10^-8 M, contact time 15 min
# [19] = Table B, second column Diuron 10^-8 M, contact time 15 min
compound,measurement,setting,value
O=c1[nH]c2c(c(=O)n1C1CCCCC1)CCC2 [Lenacil],Supersensitivity R/S,D1 protein Val219->Ile,"Lenacil 0,8"
CSc1nnc(C(C)(C)C)c(=O)n1N [Metribuzin],Supersensitivity R/S,D1 protein Ala250->Arg,"Metribuzin 0,5"
same,Supersensitivity R/S,D1 protein Phe255->Tyr [1],"Metribuzin 0,8"
same,Supersensitivity R/S,D1 protein A1a251→Gly,"Metribuzin 0,6"
same,Supersensitivity R/S,D1 protein Phe255->Tyr [2],"Metribuzin 0,6"
same,Supersensitivity R/S,[3],"0,5"
same,Supersensitivity R/S,D1 protein Ala250->Asn,"Metribuzin 0,8"
same,Supersensitivity R/S,[4],"0,5"
N#Cc1cc(I)c(O)c(I)c1 [loxynil],Supersensitivity R/S,D1 protein Ala250->Arg,"loxynil 0,5"
same,Supersensitivity R/S,[5],"loxynil 0,5"
same,Supersensitivity R/S,D1 protein Ala250->Asp,"loxynil 0,2"
same,Supersensitivity R/S,D1 protein A1a250->Tyr,"loxynil 0,8"
same,Supersensitivity R/S,[6],"loxynil 0,13"
same,Supersensitivity R/S,[7],"locynil 0,2"
same,Supersensitivity R/S,D1 protein Ser264->Ala [8],"loxynil 0,4"
same,sensitivity (concentration),PS II,one order of magnitude higher
same,Supersensitivity R/S,[9],"loxynil 0,8"
same,Supersensitivity R/S,Tyr222->Phe,"Iloxynil <0,01"
same,Supersensitivity R/S,[10],"loxynil 0,8"
same,Supersensitivity R/S,D1 protein Ser264->Thr,"loxynil 0,2"
same,Supersensitivity R/S,D1 protein Arg257->Val,"loxynil 0,8"
same,Supersensitivity R/S,D1 protein Ser264->Ala [11],"loxynil 0,5"
same,Supersensitivity R/S,[4],"loxynil 0,2"
CN(C)C(=O)Nc1ccc(Cl)c(Cl)c1 [Diuron],Resistance R/S,"PhC2,6―Pro",patron 1
same,Area % inhibition Mutant,[12],96%
same,Resistance R/S,Thr226->Met,Diuron 1
same,Resistance R/S,I1e229->Cys,Diuron 1
same,Resistance R/S,Gly228->Val,Diuron 1
same,sensitivity,[13],10^-10 mol/l
same,Area % inhibition Wild-type,[14],99%
same,Resistance R/S,I1e229->Ala,Diuron 1
same,Resistance R/S,Phe216->Leu,Diuron 1
same,Area,"Vicia faba thylakoids; Diuron 10^-6 M, area over the fluorescence curve",10300
same,inhibition at 1 µM,"Vicia faba thylakoids; Diuron 10^-6 M, inhibition of area vs control",93%
same,Fv/Fm,"Vicia faba thylakoids; Diuron 10^-6 M, mean of at least three measures","0,540"
same,Area,Vicia faba thylakoids; [17],4030
same,Fv/Fm,Vicia faba thylakoids; [17],"0,475"
same,inhibition at 0.001 µM,Vicia faba thylakoids; [17],60%
same,Resistance R/S,Gly228->Arg,Diuron 1
same,Resistance R/S,Thr226->Ala,Diuron 1
same,Resistance R/S,Phe216→Val,Diuron 1
same,Supersensitivity R/S,D1 protein Phe255->Tyr [2],"Diuron 0,6-0,8"
same,Resistance R/S,I1e229→Met,Diuron 1
same,Area,[15]; [18],12700
same,Fv/Fm,[15]; [18],"0,768"
same,inhibition at 0.01 µM,[15]; [18],88%
same,Area,[15]; [19],10400
same,Fv/Fm,[15]; [19],"0,756"
same,inhibition at 0.01 µM,[15]; [19],71%
same,Area,"[15]; Table C, Diuron 10^-7M, 10 min",7830
same,Fv/Fm,"[15]; Table C, Diuron 10^-7M, 10 min","0,746"
same,inhibition at 0.1 µM,"[15]; Table C, Diuron 10^-7M, 10 min",32%
same,Area,"[15]; Table C, Diuron 10^-7M, 40 min",6120
same,Fv/Fm,"[15]; Table C, Diuron 10^-7M, 40 min","0,711"
same,inhibition at 0.1 µM,"[15]; Table C, Diuron 10^-7M, 40 min",47%
same,Area,"[15]; Table C, Diuron 10^-7M, 50 min",5090
same,Fv/Fm,"[15]; Table C, Diuron 10^-7M, 50 min","0,700"
same,inhibition at 0.1 µM,"[15]; Table C, Diuron 10^-7M, 50 min",56%
same,Area,"[15]; Table C, Diuron 10^-7M, 60 min",4160
same,Fv/Fm,"[15]; Table C, Diuron 10^-7M, 60 min","0,684"
same,inhibition at 0.1 µM,"[15]; Table C, Diuron 10^-7M, 60 min",64%
same,Supersensitivity R/S,D1 protein Asn266->Asp,"Diuron 0,7"
same,Supersensitivity R/S,D1 protein A/a251->lIe,"Diuron 0,6"
same,Resistance R/S,I1e228->Leu,Diuron 1
same,sensitivity (concentration),PS II,lower than nanomolar
same,sensitivity,monoclonal antibodies,200 pM
same,Supersensitivity R/S,Tyr222->Phe,"Diuron <0,0001"
same,Resistance R/S,Phe216->Thr,Diuron 1
same,Supersensitivity R/S,[16],"Diuron 0,8"
